The term IC50 denotes the concentration needed to halve the response being measured.

One assay concerns A549. Briefly: Cell-based assay, anti-proliferative activity (Cell Counting Kit-8, 72 hours). The following applies: Homo sapiens, read-out: IC50 (μM) A549. The procedure:
100 micro-L of cell suspension was seeded onto 96-well microtiter plate (ViewPlate-96FTC, PerkinElmer). […] Cellular growth was determined using Cell Counting Kit-8 (DOJINDO) at 72 hours after the exposure of the candidate inhibitors. […] Accurate IC50 values were calculated as described previously.
A general note: Formazan colour is commonly taken as a measure of viable cells.

In a further assay the test system is CCD-18Co. The description is as above. The following applies: Homo sapiens, read-out: IC50 (μM) CCD-18Co. The procedure:
(§1) Active candidate inhibitors against SUV39H2 were evaluated for their target-specific cytotoxicity using A549, HCT-116, HFL1, CCD-18Co and PC14. 100 micro-L of cell suspension was seeded onto 96-well microtiter plate (ViewPlate-96FTC, PerkinElmer). The initial cell concentration of A549, HCT-116, HFL1, CCD-18Co and PC14 were 3,000 cells/well, 2,000 cells/well and 2,500 cells/well, respectively. Cellular growth was determined using Cell Counting Kit-8 (DOJINDO) at 72 hours after the exposure of the candidate inhibitors. IC50 was used as an indicator of the anti-proliferative activity of the inhibitors, and calculated by serial dilution method (0, 1.5625, 3.125, 6.25, 12.5, 25, 50, and 100 micro-M). Accurate IC50 values were calculated as described previously.

The test system of a further assay is HCT-116. The description is as above. Particulars: Homo sapiens, read-out: IC50 (μM) HCT-116. The procedure: as §1
The next assay deals with HFL1. The assay is described as above. The following applies: Homo sapiens, read-out: IC50 (μM) HFL1. The procedure:
as §1

The target in a further assay is SUV39H2 (Homo sapiens (Human), UniProt Q9H5I1). Particulars: read-out: IC50 (μM) Suv 39H2 assay.
Sequence of SUV39H2 (Q9H5I1 whole entry): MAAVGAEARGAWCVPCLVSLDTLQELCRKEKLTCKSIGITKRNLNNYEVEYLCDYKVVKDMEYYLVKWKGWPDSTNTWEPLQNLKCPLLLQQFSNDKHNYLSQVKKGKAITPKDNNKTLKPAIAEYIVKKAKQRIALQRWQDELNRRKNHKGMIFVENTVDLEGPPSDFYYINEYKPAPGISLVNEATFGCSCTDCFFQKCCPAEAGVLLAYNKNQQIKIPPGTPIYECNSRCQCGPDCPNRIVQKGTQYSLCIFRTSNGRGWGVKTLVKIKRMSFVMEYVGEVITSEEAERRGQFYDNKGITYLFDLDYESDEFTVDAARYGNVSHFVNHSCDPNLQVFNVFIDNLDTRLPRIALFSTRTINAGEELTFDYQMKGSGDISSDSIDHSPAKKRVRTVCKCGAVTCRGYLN
[1] abbreviates: A549 cells, Cell Counting Kit-8, 72 hours.
[2] abbreviates: CCD-18Co cells, Cell Counting Kit-8, 72 hours.
Setting [3] is: HCT-116 cells, Cell Counting Kit-8, 72 hours.
The mark [4] stands for this setting: HFL1 cells, Cell Counting Kit-8, 72 hours.

SMILES strings stand for the structures. Counter-ions that a name gives are not always drawn. Like-named read-outs stand apart in the source and are kept apart here.

For `COc1cc(OC)c(-c2cn3ccc(N4CCNCC4)cc3n2)cc1Cl` [Example 17, 2-(5-chloro-2,4-dimethoxyphenyl)-7-(piperazin-1-yl)imidazo[1,2-a]pyridine], the IC50 came to 6.1 µM with A549 (setting [1]); 8.6 µM with CCD-18Co (setting [2]); 4.5 µM with HCT-116 (setting [3]); 3.3 µM in the assay with HFL1 (setting [4]); 0.0195 µM on SUV39H2 (enzyme assay).

Take `COc1cc(OC)c(-c2cn3ccc(NCCNC(=O)OC(C)(C)C)nc3n2)cc1Br` [Example 18, tert-butyl (2-((2-(5-bromo-2,4-dimethoxyphenyl)imidazo[1,2-a]pyrimidin-7-yl)amino)ethyl)carbamate]: the IC50 in the assay on A549 (setting [1]) was 14 µM; in the assay on CCD-18Co (setting [2]) it was 12 µM; in the assay with HCT-116 (setting [3]), 13 µM; in the assay with HFL1 (setting [4]), 11 µM; at SUV39H2 (enzyme assay), 0.0884 µM.

As for `COc1cc(OC)c(-c2cn3ccc(N4CCC(N)C4)nc3n2)cc1Br` (stereo not shown) [Example 19, hydrochloride], the IC50 in the assay on A549 (A549, 72 h) worked out at 11 µM; in the assay on CCD-18Co (CCD-18Co, 72 h), 16 µM; in the assay on HCT-116 (HCT-116, 72 h), 7.9 µM; with HFL1 (HFL1, 72 h), 4.2 µM; on SUV39H2, 0.0292 µM.

On to `COc1ccc(-c2cn3ccc(N4CCCC4)cc3n2)cc1C#N` [Example 21, 2-methoxy-5-(7-(pyrrolidin-1-yl)imidazo[1,2-a]pyridin-2-yl)benzonitrile hydrobromide], for which the IC50 in the assay on A549 (setting [1]) turned out to be 4.2 µM; with CCD-18Co (setting [2]), 5.5 µM; with HCT-116 (setting [3]), 3.1 µM; in the assay on HFL1 (setting [4]) it was 2.5 µM; on SUV39H2 (enzyme assay) it was 0.0733 µM.

For the molecule `COc1cc(OC)c(-c2cn3ccc(N4CCCCC4)cc3n2)cc1Cl` [Example 25, 2-(5-chloro-2,4-dimethoxyphenyl)-7-(piperidin-1-yl)imidazo)[1,2-a]pyridine hydrobromide], the IC50 was 3 µM in the assay with A549 (setting [1]); 2.3 µM with CCD-18Co (setting [2]); 2 µM in the assay with HCT-116 (setting [3]); 1.4 µM with HFL1 (setting [4]); 0.0122 µM at SUV39H2 (enzyme assay).

As to `COc1cc(OC)c(-c2cn3ccc(N4CCC(NC(=O)OC(C)(C)C)C4)nc3n2)cc1Cl` (stereo not shown) [Example 26, tert-butyl (1-(2-(5-chloro-2,4-dimethoxyphenyl)imidazo[1,2-a]pyrimidin-7-yl)pyrrolidin-3-yl)carbamate], the IC50 amounted to 7.9 µM in the assay with A549 (setting [1]); 7.9 µM in the assay with CCD-18Co (setting [2]); 13 µM in the assay with HCT-116 (setting [3]); 6.7 µM with HFL1 (setting [4]); 0.017 µM on SUV39H2 (enzyme assay).

Turning to `COc1cc(OC)c(-c2cn3ccc(-c4cncc(N)c4)cc3n2)cc1Cl` [Example 27, 5-[2-(5-chloro-2,4-dimethoxyphenyl)imidazo[1,2-a]pyridin-7-yl]pyridin-3-amine], the IC50 came out at 1.9 µM with A549 (setting [1]); 3.3 µM with CCD-18Co (setting [2]); 3.3 µM with HCT-116 (setting [3]); 1.8 µM with HFL1 (setting [4]); 0.0396 µM on SUV39H2 (enzyme assay).

In the case of `COc1cc(OC)c(-c2cn3ccc(N4CCN(CCNC(=O)OC(C)(C)C)CC4)cc3n2)cc1Cl` [Example 28, tert-butyl (2-(4-(2-(5-chloro-2,4-dimethoxyphenyl)imidazo[1,2-a]pyridin-7-yl)piperazin-1-yl)ethyl)carbamate dihydrochloride], the IC50 in the assay with A549 (setting [1]) worked out at 3.6 µM; with CCD-18Co (setting [2]), 4 µM; in the assay on HCT-116 (setting [3]), 2.8 µM; in the assay on HFL1 (setting [4]) it was 3.4 µM; on SUV39H2 (enzyme assay), 0.021 µM.

For the molecule `COc1cc(OC)c(-c2cn3ccc(N4CCN(CCN)CC4)cc3n2)cc1Cl` [Example 29, 2-(4-(2-(5-chloro-2,4-dimethoxyphenyl)imidazo[1,2-a]pyridin-7-yl)piperazin-1-yl)ethanamine trihydrochloride], the IC50 in the assay on A549 (A549, 72 h) was 7 µM; in the assay on CCD-18Co (CCD-18Co, 72 h), 12 µM; in the assay on HCT-116 (HCT-116, 72 h), 9.7 µM; in the assay with HFL1 (HFL1, 72 h), 4.5 µM; at SUV39H2 it was 0.012 µM.

With `COc1cc(OC)c(-c2cn3ccc(N4CCC(CN)CC4)nc3n2)cc1Cl` [Example 31, (1-(2-(5-chloro-2,4-dimethoxyphenyl)imidazo[1,2-a]pyrimidin-7-yl)piperidin-4-yl)methanamine hydrochloride], the IC50 was 18 µM with A549 (A549, 72 h); 23 µM with CCD-18Co (CCD-18Co, 72 h); 22 µM in the assay on HCT-116 (HCT-116, 72 h); 9.3 µM in the assay with HFL1 (HFL1, 72 h); 0.0489 µM at SUV39H2.

In the case of `COc1cc(OC)c(-c2cn3ccc(N4CCC(CNC(=O)OC(C)(C)C)CC4)nc3n2)cc1Cl` [Example 32, tert-butyl ((1-(2-(5-chloro-2,4-dimethoxyphenyl)imidazo[1,2-a]pyrimidin-7-yl)piperidin-4-yl)methyl)carbamate], the IC50 turned out to be 6.7 µM in the assay with A549 (setting [1]); 6.3 µM with CCD-18Co (setting [2]); 8.4 µM in the assay on HCT-116 (setting [3]); 4.6 µM in the assay with HFL1 (setting [4]); 0.037 µM at SUV39H2 (enzyme assay).

On to `COc1cc(OC)c(-c2cn3ccc(N4CCC(N)C4)nc3n2)cc1Cl` (stereo not shown) [Example 34, 1-(2-(5-chloro-2,4-dimethoxyphenyl)imidazo[1,2-a]pyrimidin-7-yl)pyrrolidin-3-amine hydrochloride], for which the IC50 was determined as 12 µM in the assay with A549 (A549, 72 h); 11 µM in the assay on CCD-18Co (CCD-18Co, 72 h); 9.6 µM in the assay on HCT-116 (HCT-116, 72 h); 4.4 µM in the assay on HFL1 (HFL1, 72 h); 0.0273 µM on SUV39H2.

As to `COc1cc(OC)c(-c2cn3ccc(NCCCN)cc3n2)cc1Cl` [Example 35, N^1-(2-(5-chloro-2,4-dimethoxyphenyl)imidazo[1,2-a]pyridin-7-yl)propane-1,3-diamine], the IC50 in the assay with A549 (setting [1]) was determined as 14 µM; in the assay on CCD-18Co (setting [2]), 14 µM; in the assay with HCT-116 (setting [3]), 9.8 µM; in the assay with HFL1 (setting [4]), 7 µM; on SUV39H2 (enzyme assay), 0.0124 µM.

As for `COc1cc(OC)c(-c2cn3ccc(N4CCC(NC(=O)OC(C)(C)C)CC4)nc3n2)cc1Cl` [Example 36, tert-butyl (1-(2-(5-chloro-2,4-dimethoxyphenyl)imidazo[1,2-a]pyrimidin-7-yl)piperidin-4-yl)carbamate], the IC50 was determined as 5.6 µM with A549 (setting [1]); 3.8 µM in the assay on CCD-18Co (setting [2]); 4.1 µM in the assay on HCT-116 (setting [3]); 3.2 µM with HFL1 (setting [4]); 0.0552 µM on SUV39H2 (enzyme assay).

Consider `COc1cc(OC)c(-c2cn3ccc(N4CCC(N)CC4)nc3n2)cc1Cl` [Example 42, 1-(2-(5-chloro-2,4-dimethoxyphenyl)imidazo[1,2-a]pyrimidin-7-yl)-piperidin-4-amine hydrochloride], for which the IC50 in the assay with A549 (A549, 72 h) turned out to be 10 µM; in the assay with CCD-18Co (CCD-18Co, 72 h) it was 13 µM; in the assay with HCT-116 (HCT-116, 72 h), 6.6 µM; with HFL1 (HFL1, 72 h), 4.2 µM; on SUV39H2, 0.079 µM.

With `COc1cc(OC)c(-c2cn3ccc(N4CCN(CCO)CC4)nc3n2)cc1Cl` [Example 45, 2-(4-(2-(5-chloro-2,4-dimethoxyphenyl)imidazo[1,2-a]pyrimidin-7-yl)-piperazin-1-yl)ethanol], the IC50 in the assay on A549 (setting [1]) came out at 18 µM; with CCD-18Co (setting [2]), 21 µM; in the assay on HCT-116 (setting [3]), 12 µM; with HFL1 (setting [4]) it was 17 µM; at SUV39H2 (enzyme assay) it was 0.0365 µM.

Turning to `COc1cc(OC)c(-c2cn3ccc(N(C)CCNC(=O)OC(C)(C)C)cc3n2)cc1Cl` [Example 48, tert-butyl (2-((2-(5-chloro-2,4-dimethoxyphenyl)imidazo[1,2-a]pyridine-7-yl)(methyl)aimno)ethyl)carbamate], the IC50 in the assay with A549 (setting [1]) was 8.2 µM; with CCD-18Co (setting [2]), 6.4 µM; in the assay with HCT-116 (setting [3]), 7.3 µM; in the assay with HFL1 (setting [4]) it was 3.8 µM; at SUV39H2 (enzyme assay), 0.0124 µM.

Turning to `COc1cc(OC)c(-c2cn3cnc(N)cc3n2)cc1Cl` [Example 51, 2-(5-chloro-2,4-dimethoxyphenyl)imidazo[1,2-c]pyrimidin-7-amine], the IC50 in the assay with A549 (setting [1]) came out at 9.8 µM; in the assay with CCD-18Co (setting [2]), 6.8 µM; in the assay on HCT-116 (setting [3]), 8.9 µM; in the assay with HFL1 (setting [4]), 8.4 µM; at SUV39H2 (enzyme assay) it was 0.0531 µM.

Consider `COc1cc(OC)c(-c2cn3ccc(C4=CCNCC4)cc3n2)cc1Cl` [Example 52, 2-(5-chloro-2,4-dimethoxyphenyl)-7-(1,2,3,6-tetrahydropyridin-4-yl)imidazo[1,2-a]pyridine], for which the IC50 in the assay with A549 (setting [1]) is 1.5 µM; in the assay with CCD-18Co (setting [2]), 1.3 µM; in the assay on HCT-116 (setting [3]), 1.4 µM; in the assay on HFL1 (setting [4]), 1.6 µM; on SUV39H2 (enzyme assay), 0.0616 µM.

For `COc1cc(OC(C)C)c(-c2cn3ccc(N4CCCC4)cc3n2)cc1Br` [Example 53, hydrobromide], the IC50 was determined as 2.5 µM in the assay with A549 (setting [1]); 2.1 µM in the assay on CCD-18Co (setting [2]); 2.4 µM in the assay with HCT-116 (setting [3]); 1.9 µM in the assay on HFL1 (setting [4]); 0.0181 µM at SUV39H2 (enzyme assay).

These data come from patent US10508109B2 (priority 2015, dated 2019).
